Test results published in US11072598B2, “Somatostatin modulators and uses thereof” (CRINETICS PHARMACEUTICALS, INC., priority 2017, dated 2021).

Key:
[1] = target: T1, human somatostatin receptor subtype 2 (Homo sapiens, UniProt P30874); experiment: cAMP functional assay for SSTR2 agonists; format: cell-based; conditions: inhibition of cAMP activities via human SST2 receptor (SSTR2), CHO-K1 cells; read-out: EC50
T1 construct: expressed in transfected cells
Summary of the method: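 CHO-K1 cells stably expressing human SSTR2 were treated for 20 min at 37 °C with compound plus NKH477 (added as 1.6 μM) in HBSS with IBMX. Intracellular cAMP was measured by HTRF against a standard curve. EC50 values came from concentration-response curves.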

hSSTR4 = target: T2, hSSTR4 (Homo sapiens, UniProt P31391); experiment: inhibition of cAMP via hSSTR4; format: cell-based; conditions: selectivity for inhibition of cAMP via hSSTR2 vs. hSSTR4
T2 construct: expressed in transfected cells
Excerpt: General overview: All five SSTR subtypes are Gi coupled G-protein coupled receptors (GPCRs) that lead to decreases in intracellular cyclic AMP (cAMP) when activated by an agonist. Therefore, measurement of intracellular cAMP levels can be used to assess whether compounds of the invention are agonists of SSTR subtypes (John Kelly, Troy Stevens, W. Joseph Thompson, and Roland Seifert, Current Protocols in Pharmacology, 2005, 2.2.1-2.2). One example of an intracellular cAMP assay is described below. cAMP assay protocol:
Four days prior to the assay, 5,000 Chinese hamster ovary cells (CHO-K1, ATCC #CCL-61) stably expressing the human somatostatin receptor subtype 2 are plated in each well of a 96-well tissue culture-treated plate in Ham's F12 growth media (ThermoFisher #10-080-CM) supplemented with 10% donor bovine serum (Gemini Bio-Products #100-506), 100 U/mL penicillin; 100 ug/mL streptomycin; 2 mM L-glutamine (Gemini Bio-Products #400-110) and 0.2 mg/mL hygromycin B (GoldBio #31282-04-9). The cells are cultured at 37° C., 5% CO2 and 95% humidity. On the day of the assay, the media is aspirated and the cells are treated with 50 μL of 1.6 μM NKH477 (Sigma #N3290) plus various dilutions of compounds of the invention in assay buffer [1× Hank's Balanced Salt Solution (ThermoFisher #SH3058802), 0.5 mM HEPES pH 7.4, 0.1% bovine serum albumin, 0.2 mM 3-Isobutyl-1-methylxanthine (IBMX, VWR #200002-790)]. The cells are incubated for 20 minutes at 37° C. (the final concentration of the compounds of the invention are typically 0-10,000 nM). The cells are treated with 50 μL of lysis buffer (HRTF cAMP kit, Cisbio). The lysate is transferred to 384-well plates and cAMP detection and visualization antibodies are added and incubated for 1-24 hours at room temperature. The time-resolved fluorescent signal is read with a Tecan M1000Pro multiplate reader. The intracellular cAMP concentrations are calculated by regression to a standard curve and are plotted vs. the concentration of the compounds of the invention and the EC50 of the compounds are calculated using standard methods. All data manipluations are in GraphPad Prism v6.

T1 sequence (P30874 whole entry): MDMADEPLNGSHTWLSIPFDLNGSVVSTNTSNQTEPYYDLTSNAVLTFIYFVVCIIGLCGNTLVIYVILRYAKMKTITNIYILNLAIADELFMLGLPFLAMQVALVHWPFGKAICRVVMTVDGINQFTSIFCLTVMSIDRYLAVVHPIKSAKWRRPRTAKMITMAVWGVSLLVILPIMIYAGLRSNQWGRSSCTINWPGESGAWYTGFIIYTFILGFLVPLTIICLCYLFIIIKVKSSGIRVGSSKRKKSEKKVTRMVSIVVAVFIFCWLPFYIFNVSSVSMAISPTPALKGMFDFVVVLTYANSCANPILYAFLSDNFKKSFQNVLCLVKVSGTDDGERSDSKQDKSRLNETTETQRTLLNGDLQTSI
T2 sequence (P31391 whole entry): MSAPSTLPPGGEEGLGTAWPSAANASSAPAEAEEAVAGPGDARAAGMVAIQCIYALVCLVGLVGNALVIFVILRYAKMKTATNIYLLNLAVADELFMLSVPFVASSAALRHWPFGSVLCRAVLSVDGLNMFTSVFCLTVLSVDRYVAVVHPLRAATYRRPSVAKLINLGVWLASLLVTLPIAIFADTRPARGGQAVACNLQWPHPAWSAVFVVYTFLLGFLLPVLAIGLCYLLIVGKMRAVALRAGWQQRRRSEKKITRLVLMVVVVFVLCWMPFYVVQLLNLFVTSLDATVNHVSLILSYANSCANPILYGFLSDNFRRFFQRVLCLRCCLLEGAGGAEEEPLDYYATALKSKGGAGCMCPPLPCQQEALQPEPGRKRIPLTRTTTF

For `COc1ccc2[nH]c(-c3c(N)ncc(-c4cc(C)cc(F)c4)c3N3CCC(N)CC3)nc2c1` [Compound 1-8, 4-(4-aminopiperidin-1-yl)-5-(3-fluoro-5-methylphenyl)-3-(5-methoxy-1H-1,3-benzodiazol-2-yl)pyridin-2-amine], the EC50 [1] was under 10 nM and the “hSST4/hSST2 (ratio)” value (hSSTR4) was “b (between 15 and 50)”.

With `Cc1cc(F)cc(-c2cnc(N3CCOCC3)c(-c3nc4cc(F)cc(F)c4[nH]3)c2N2CCC(N)CC2)c1` [Compound 4-8, 1-[3-(5,7-difluoro-1H-1,3-benzodiazol-2-yl)-5-(3-fluoro-5-methylphenyl)-2-(morpholin-4-yl)pyridin-4-yl]piperidin-4-amine] the EC50 [1] was under 10 nM and the “hSST4/hSST2 (ratio)” value (hSSTR4) was “a (above 50)”.

In the case of `Cc1cc(F)cc(-c2cnc(N)c(-c3nc4cc(F)cc(OCC#N)c4[nH]3)c2N2CCC(N)CC2)c1` [Compound 1-74, 2-({2-[2-amino-4-(4-aminopiperidin-1-yl)-5-(3-fluoro-5-methylphenyl)pyridin-3-yl]-5-fluoro-1H-1,3-benzodiazol-7-yl}oxy)acetonitrile], the EC50 [1] is reported as under 10 nM and the “hSST4/hSST2 (ratio)” value (hSSTR4) is reported as “c (between 2.5 and 15)”.

With `COc1ccc2[nH]c(-c3c(OC)ncc(-c4cc(C)cc(F)c4)c3N3CCC(N)CC3)nc2c1` [Compound 2-3, 1-[5-(3-fluoro-5-methylphenyl)-2-methoxy-3-(5-methoxy-1H-1,3-benzodiazol-2-yl)pyridin-4-yl]piperidin-4-amine] the EC50 [1] was under 10 nM and the “hSST4/hSST2 (ratio)” value (hSSTR4) was “a (above 50)”.

With `CNc1ncc(-c2cc(C)cc(F)c2)c(N2CCC(N)CC2)c1-c1nc2cc(Cl)cc(F)c2[nH]1` [Compound 1-75, 4-(4-aminopiperidin-1-yl)-3-(5-chloro-7-fluoro-1H-1,3-benzodiazol-2-yl)-5-(3-fluoro-5-methylphenyl)-N-methylpyridin-2-amine] the EC50 [1] was under 10 nM and the “hSST4/hSST2 (ratio)” value (hSSTR4) was “a (above 50)”.

In the case of `CCn1c(-c2c(N)ncc(-c3cc(C)cc(F)c3)c2N2CCC(N)CC2)nc2cc(F)c(F)cc21` [Compound 1-5, 4-(4-aminopiperidin-1-yl)-3-(1-ethyl-5,6-difluoro-1H-1,3-benzodiazol-2-yl)-5-(3-fluoro-5-methylphenyl)pyridin-2-amine], the EC50 [1] is reported as under 10 nM and the “hSST4/hSST2 (ratio)” value (hSSTR4) is reported as “b (between 15 and 50)”.

With `CCNc1ncc(-c2cc(C)cc(F)c2)c(N2CCC(N)CC2)c1-c1nc2cc(F)c(F)cc2[nH]1` [Compound 1-50, 4-(4-aminopiperidin-1-yl)-3-(5,6-difluoro-1H-1,3-benzodiazol-2-yl)-N-ethyl-5-(3-fluoro-5-methylphenyl)pyridin-2-amine] the EC50 [1] was under 10 nM and the “hSST4/hSST2 (ratio)” value (hSSTR4) was “a (above 50)”.

For `COc1cc(F)cc2nc(-c3c(N4CC(F)C4)ncc(-c4cc(C)cc(F)c4)c3N3CCC(N)CC3)[nH]c12` [Compound 4-7, 1-[3-(5-fluoro-7-methoxy-1H-1,3-benzodiazol-2-yl)-5-(3-fluoro-5-methylphenyl)-2-(3-fluoroazetidin-1-yl)pyridin-4-yl]piperidin-4-amine], the EC50 [1] was under 10 nM and the “hSST4/hSST2 (ratio)” value (hSSTR4) was “a (above 50)”.

In the case of `COc1cc(F)cc2nc(-c3c(C)ncc(-c4cc(C)cc(F)c4)c3N3CCC(N)CC3)[nH]c12` [Compound 2-15, 1-[3-(5-fluoro-7-methoxy-1H-1,3-benzodiazol-2-yl)-5-(3-fluoro-5-methylphenyl)-2-methylpyridin-4-yl]piperidin-4-amine], the EC50 [1] is reported as under 10 nM and the “hSST4/hSST2 (ratio)” value (hSSTR4) is reported as “c (between 2.5 and 15)”.

`Cc1cc(F)cc(-c2cnc(N)c(-c3nc4cc(F)c(F)cc4[nH]3)c2N2CCC(N)CC2)c1` [Compound 1-3, 4-(4-aminopiperidin-1-yl)-3-(5,6-difluoro-1H-1,3-benzodiazol-2-yl)-5-(3-fluoro-5-methylphenyl)pyridin-2-amine] was tested, and the EC50 [1] was under 10 nM and the “hSST4/hSST2 (ratio)” value (hSSTR4) was “b (between 15 and 50)”.

In the case of `CCNc1ncc(-c2cc(C)cc(F)c2)c(N2CCC(N)CC2)c1-c1nc2cc(F)cc(F)c2[nH]1` [Compound 1-49, 4-(4-aminopiperidin-1-yl)-3-(5,7-difluoro-1H-1,3-benzodiazol-2-yl)-N-ethyl-5-(3-fluoro-5-methylphenyl)pyridin-2-amine], the EC50 [1] is reported as under 10 nM and the “hSST4/hSST2 (ratio)” value (hSSTR4) is reported as “a (above 50)”.

`COc1ncc(-c2cc(C)cc(F)c2)c(N2CCC(N)CC2)c1-c1nc2cc(F)ccc2[nH]1` [Compound 2-1, 1-[3-(5-fluoro-1H-1,3-benzodiazol-2-yl)-5-(3-fluoro-5-methylphenyl)-2-methoxypyridin-4-yl]piperidin-4-amine] was tested, and the EC50 [1] was under 10 nM and the “hSST4/hSST2 (ratio)” value (hSSTR4) was “a (above 50)”.

With `COc1ncc(-c2cc(C)cc(F)c2)c(N2CCC(N)CC2)c1-c1nc2cc(F)cc(F)c2[nH]1` [Compound 2-5, 1-[3-(5,7-difluoro-1H-1,3-benzodiazol-2-yl)-5-(3-fluoro-5-methylphenyl)-2-methoxypyridin-4-yl]piperidin-4-amine] the EC50 [1] was under 10 nM and the “hSST4/hSST2 (ratio)” value (hSSTR4) was “a (above 50)”.

For `CNc1ncc(-c2cc(C)cc(F)c2)c(N2CCC(N)CC2)c1-c1nc2cc(F)c(F)cc2[nH]1` [Compound 1-55, 4-(4-aminopiperidin-1-yl)-3-(5,6-difluoro-1H-1,3-benzodiazol-2-yl)-5-(3-fluoro-5-methylphenyl)-N-methylpyridin-2-amine], the EC50 [1] was under 10 nM and the “hSST4/hSST2 (ratio)” value (hSSTR4) was “a (above 50)”.

With `Cc1cc(F)cc(-c2cnnc(-c3cc4ccc(F)cc4[nH]3)c2N2CCC(N)CC2)c1` [Compound 3-4, 1-[3-(6-fluoro-1H-indol-2-yl)-5-(3-fluoro-5-methylphenyl)pyridazin-4-yl]piperidin-4-amine] the EC50 [1] was under 10 nM.

`Cc1cc(F)cc(-c2cnc(N)c(-c3nc4cc(C#N)cc(F)c4[nH]3)c2N2CCC(N)CC2)c1` [Compound 1-69, 2-[2-amino-4-(4-aminopiperidin-1-yl)-5-(3-fluoro-5-methylphenyl)pyridin-3-yl]-7-fluoro-1H-1,3-benzodiazole-5-carbonitrile] showed an EC50 [1] of under 10 nM.

`N#CCOc1cc(F)cc2nc(-c3c(N)ncc(-c4cc(F)cc(Cl)c4)c3N3CCC(N)CC3)[nH]c12` [Compound 1-87, 2-({2-[2-amino-4-(4-aminopiperidin-1-yl)-5-(3-chloro-5-fluorophenyl)pyridin-3-yl]-5-fluoro-1H-1,3-benzodiazol-7-yl}oxy)acetonitrile] showed an EC50 [1] of under 10 nM.

Work on `COc1ncc(-c2cc(C)cc(Cl)c2)c(N2CCC(N)CC2)c1/C=N/OC(C)(C)C` [Compound 2-12, 1-{3-[(1E)-[(tert-butoxy)imino]methyl]-5-(3-chloro-5-methylphenyl)-2-methoxypyridin-4-yl}piperidin-4-amine] yielded an EC50 [1] of over 100 nM.

Work on `CNC1CCN(c2c(-c3cc(C)cc(F)c3)cnc(N)c2-c2nc3ccc(C#N)cc3[nH]2)CC1` [Compound 4-2, 2-[2-amino-5-(3-fluoro-5-methylphenyl)-4-[4-(methylamino)piperidin-1-yl]pyridin-3-yl]-1H-1,3-benzodiazole-6-carbonitrile] yielded an EC50 [1] of under 10 nM.

`CON(C)C(=O)c1cccc2nc(-c3c(N)ncc(-c4cc(C)cc(F)c4)c3N3CCC(N)CC3)[nH]c12` [Compound 1-18, 2-[2-amino-4-(4-aminopiperidin-1-yl)-5-(3-fluoro-5-methylphenyl)pyridin-3-yl]-N-methoxy-N-methyl-1H-1,3-benzodiazole-7-carboxamide] gave an EC50 [1] of 10 to 100 nM.

`CNc1ncc(-c2cc(C)cc(F)c2)c(N2CCC(N)CC2)c1-c1nc2cccc(Cl)c2[nH]1` [Compound 1-72, 4-(4-aminopiperidin-1-yl)-3-(7-chloro-1H-1,3-benzodiazol-2-yl)-5-(3-fluoro-5-methylphenyl)-N-methylpyridin-2-amine] was tested, and the EC50 [1] was under 10 nM.

For `COc1cc(F)cc2nc(-c3c(N)ncc(-c4cc(F)cc(Cl)c4)c3N3CCC(N)CC3)[nH]c12` [Compound 1-90, 4-(4-aminopiperidin-1-yl)-5-(3-chloro-5-fluorophenyl)-3-(5-fluoro-7-methoxy-1H-1,3-benzodiazol-2-yl)pyridin-2-amine], the EC50 [1] was under 10 nM.

For `Cc1cc(F)cc(-c2cnnc(-c3cc4cc(Cl)ccc4[nH]3)c2N2CCC(N)CC2)c1` [Compound 3-1, 1-[3-(5-chloro-1H-indol-2-yl)-5-(3-fluoro-5-methylphenyl)pyridazin-4-yl]piperidin-4-amine], the EC50 [1] was under 10 nM.

In the case of `Cc1cc(F)cc(-c2cnc(N)c(-c3nc4ncccc4[nH]3)c2N2CCC(N)CC2)c1` [Compound 1-52, 4-(4-aminopiperidin-1-yl)-5-(3-fluoro-5-methylphenyl)-3-{1H-imidazo[4,5-b]pyridin-2-yl}pyridin-2-amine], the EC50 [1] is reported as under 10 nM.
